Data published in patent US11504385B2, “Proteolysis targeting chimeric molecule, preparation method, and application” (CHINA PHARMACEUTICAL UNIVERSITY, priority 2019, dated 2022).

Columns and labels:
BCR-ABL fusion protein = target: T1, BCR-ABL fusion protein (Homo sapiens, UniProt P00519+P11274+Q96SW2, E27K); assay: Immunoblotting, degradation of BCR-ABL protein in K562 cells; format: cell-based; details: for inhibition of expression of BCR-ABL and/or CRBN protein: BCR-ABL and/or CRBN positive leukemia K562 cells, to varying degrees
T1 construct: By using BCR-ABL and CRBN positive K562 cell lines; endogenous in cells; host or cells: K562
Protocol: (§1) Initially, researchers synthesized a 2C compound (FIG. 2A), which is a small molecule with the shortest joining chain (n=1). By using BCR-ABL and CRBN positive K562 cell lines, degradation of ABL and BCR-ABL proteins in the cells under the action of the compound was tested by immunoblotting. […] Then, the researchers tried to extend the joining chain (increasing the value of n).
(§2) In order to test the degradation effect of the compound 4C on c-ABL and BCR-ABL proteins in K562 cells, the researchers performed an immunoblotting experiment. […] In order to exclude the possibility that the compound 4C affected the ABL gene to generate false positive expression, the researchers used RT-qPCR in K562 cells to study the expression of the ABL gene.
The operation method of the immunoblotting experiment is as follows: […]
(§3) The medium was aspirated from the culture; the cells were washed with 1*PBS; and the cells were aspirated.
(§4) A weak RIPA lysate (100 μL) was added to lyse the cells for 40 min.
(§5) The sample was centrifuged at 13000 rpm, 4° C. for 15 min; 80 μl of supernatant was taken and added to 20 μl of loading buffer; the reaction solution was heated at 100° C. for 8 minutes; and the sample was placed on ice and cooled.
(§6) […] of sample was loaded on 10% SDS-PAGE gel. The sample was transferred to a PVDF membrane by a wet process.
(§7) A membrane was placed in 25 ml of blocking buffer and blocked at room temperature for 1 hour.
(§8) The membrane and the primary antibody (according to the appropriate dilution and diluent recommended in the product description) were placed in 10 ml of primary antibody dilution buffer, and incubated overnight at 4° C. and gently shaken from time to time.
(§9) Anti-rabbit IgG, HRP-linked Antibody (#7074, in a ratio of 1:2000) and anti-biotin, HRP-linked Antibody (#7075, in a ratio of 1:1000-1:3000) are diluted with 10 ml of blocking buffer to detect biotinylated protein standards. The membrane was incubated with the diluent, and gently shaken and incubated at room temperature for 1 hour.
(§10) A developer solution and the membrane were incubated together for 1 minute, the excess solution was discarded (the membrane remained moist) and the membrane was exposed.
(§11) Next, we tested the difference in the activity of different configurations of compound 4C in degradation of ABL and BCR-ABL proteins. […] The operation method of the immunoblotting experiment is the same as above.

ABL = target: T2, ABL (Homo sapiens, UniProt P00519); assay: Immunoblotting, degradation of ABL protein in K562 cells; format: cell-based; details: 100 nM, 36 hours after administration
T2 construct: degradation effect of the compound 4C on c-ABL and BCR-ABL proteins in K562 cells; endogenous in cells; host or cells: K562
Protocol: as §1, §2
The operation method of the immunoblotting experiment is as follows:
K562 cells after administration were incubated for 24 hours.
as §3, §4, §5, §6, §7, §8, §9, §10, §11

T2 sequence (P00519 whole entry): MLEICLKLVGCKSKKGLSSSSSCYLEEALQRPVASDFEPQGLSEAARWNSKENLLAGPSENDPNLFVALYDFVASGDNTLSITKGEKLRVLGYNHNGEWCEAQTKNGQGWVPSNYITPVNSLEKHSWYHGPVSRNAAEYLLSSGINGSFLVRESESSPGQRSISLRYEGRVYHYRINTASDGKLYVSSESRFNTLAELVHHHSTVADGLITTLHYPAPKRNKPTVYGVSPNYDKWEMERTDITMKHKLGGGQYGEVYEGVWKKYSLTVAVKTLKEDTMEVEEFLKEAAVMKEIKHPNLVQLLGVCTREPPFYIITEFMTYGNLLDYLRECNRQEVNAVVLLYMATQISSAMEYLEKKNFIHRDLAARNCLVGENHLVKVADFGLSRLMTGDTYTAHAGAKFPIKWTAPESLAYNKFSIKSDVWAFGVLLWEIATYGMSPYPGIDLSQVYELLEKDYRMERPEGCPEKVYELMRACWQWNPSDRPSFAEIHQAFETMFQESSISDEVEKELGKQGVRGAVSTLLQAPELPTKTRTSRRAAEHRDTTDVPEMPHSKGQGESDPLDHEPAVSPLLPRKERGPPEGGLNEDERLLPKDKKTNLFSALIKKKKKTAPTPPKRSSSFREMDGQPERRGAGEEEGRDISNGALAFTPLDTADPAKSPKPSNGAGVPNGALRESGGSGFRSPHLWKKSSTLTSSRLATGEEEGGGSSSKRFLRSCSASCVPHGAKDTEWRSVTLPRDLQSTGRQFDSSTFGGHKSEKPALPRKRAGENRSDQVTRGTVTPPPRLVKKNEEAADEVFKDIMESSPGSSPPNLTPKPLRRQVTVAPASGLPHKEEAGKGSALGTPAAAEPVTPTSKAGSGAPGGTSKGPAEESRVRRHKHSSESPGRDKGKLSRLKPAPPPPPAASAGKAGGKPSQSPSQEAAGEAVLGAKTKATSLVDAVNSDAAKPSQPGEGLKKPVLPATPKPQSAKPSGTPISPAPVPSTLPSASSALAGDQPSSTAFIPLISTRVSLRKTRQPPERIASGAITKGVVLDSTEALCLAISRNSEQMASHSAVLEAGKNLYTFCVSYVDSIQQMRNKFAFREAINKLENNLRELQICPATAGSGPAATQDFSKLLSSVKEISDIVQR

Row | SMILES | inhibition of expression of BCR-ABL and/or CRBN protein (BCR-ABL fusion protein) | level of BCR-ABL fusion protein (WB) (BCR-ABL fusion protein; K562 cells, 100 nM, 36 hours after administration) | level of the BCR-ABL protein (WB) (BCR-ABL fusion protein; K562 cells, 36 hours after administration, dose-effect) | level of the ABL protein (WB) (ABL)
1 | Cc1nc(Nc2ncc(C(=O)Nc3c(C)cccc3Cl)s2)cc(N2CCN(CCCCCCOc3ccc(/N=N/c4ccc(C(=O)Nc5cccc6c5CN(C5CCC(=O)NC5=O)C6=O)cc4)cc3)CC2)n1 (stereo not shown) [Compound 6C, (E)-N-(2-chloro-6-methylphenyl)-2-((6-(4-(6-(4-((4-((2-(2,6-dioxopiperidin-3-yl)-1-oxoisoindolin-4-yl)carbamoyl)phenyl)diazenyl)phenoxy)hexyl)piperazin-1-yl)-2-methylpyrimidin-4-yl)amino)thiazole-5-carboxamide] | can inhibit the expression |  |  | 
2 | Cc1nc(Nc2ncc(C(=O)Nc3c(C)cccc3Cl)s2)cc(N2CCN(CCOc3ccc(/N=N/c4ccc(C(=O)Nc5cccc6c5CN(C5CCC(=O)NC5=O)C6=O)cc4)cc3)CC2)n1 (stereo not shown) [Compound 2C, (E)-N-(2-chloro-6-methylphenyl)-2-((6-(4-(2-(4-((4-((2-(2,6-dioxopiperidin-3-yl)-1-oxoisoindolin-4-yl)carbamoyl)phenyl)diazenyl)phenoxy)ethyl)piperazin-1-yl)-2-methylpyrimidin-4-yl)amino)thiazole-5-carboxamide] | can inhibit the expression | significantly reduced | down-regulate the level of the BCR-ABL protein in a dose-dependent manner | significantly reduced
3 | Cc1nc(Nc2ncc(C(=O)Nc3c(C)cccc3Cl)s2)cc(N2CCN(CCCCCOc3ccc(/N=N/c4ccc(C(=O)Nc5cccc6c5CN(C5CCC(=O)NC5=O)C6=O)cc4)cc3)CC2)n1 (stereo not shown) [Compound 5C, (E)-N-(2-chloro-6-methylphenyl)-2-((6-(4-(5-(4-((4-((2-(2,6-dioxopiperidin-3-yl)-1-oxoisoindolin-4-yl)carbamoyl)phenyl)diazenyl)phenoxy)pentyl)piperazin-1-yl)-2-methylpyrimidin-4-yl)amino)thiazole-5-carboxamide] | can inhibit the expression |  |  | 
4 | Cc1nc(Nc2ncc(C(=O)Nc3c(C)cccc3Cl)s2)cc(N2CCN(CCCOc3ccc(/N=N/c4ccc(C(=O)Nc5cccc6c5CN(C5CCC(=O)NC5=O)C6=O)cc4)cc3)CC2)n1 (stereo not shown) [Compound 3C, (E)-N-(2-chloro-6-methylphenyl)-2-((6-(4-(3-(4-((4-((2-(2,6-dioxopiperidin-3-yl)-1-oxoisoindolin-4-yl)carbamoyl)phenyl)diazenyl)phenoxy)propyl)piperazin-1-yl)-2-methylpyrimidin-4-yl)amino)thiazole-5-carboxamide] | can inhibit the expression |  |  | 
